Source: publication PMC9851200, “Multiparameter phenotypic screening for endogenous TFEB and TFE3 translocation identifies novel chemical series modulating lysosome function” (Autophagy, 2022)

Assays:
Format in all cases: binding
[1] = molecular target: T1, kinases (KINOMEscan panel) (Homo sapiens, UniProt O14976); conditions: kinase GAK; NEW KINOMEscan
T1 sequence (O14976 1-1311): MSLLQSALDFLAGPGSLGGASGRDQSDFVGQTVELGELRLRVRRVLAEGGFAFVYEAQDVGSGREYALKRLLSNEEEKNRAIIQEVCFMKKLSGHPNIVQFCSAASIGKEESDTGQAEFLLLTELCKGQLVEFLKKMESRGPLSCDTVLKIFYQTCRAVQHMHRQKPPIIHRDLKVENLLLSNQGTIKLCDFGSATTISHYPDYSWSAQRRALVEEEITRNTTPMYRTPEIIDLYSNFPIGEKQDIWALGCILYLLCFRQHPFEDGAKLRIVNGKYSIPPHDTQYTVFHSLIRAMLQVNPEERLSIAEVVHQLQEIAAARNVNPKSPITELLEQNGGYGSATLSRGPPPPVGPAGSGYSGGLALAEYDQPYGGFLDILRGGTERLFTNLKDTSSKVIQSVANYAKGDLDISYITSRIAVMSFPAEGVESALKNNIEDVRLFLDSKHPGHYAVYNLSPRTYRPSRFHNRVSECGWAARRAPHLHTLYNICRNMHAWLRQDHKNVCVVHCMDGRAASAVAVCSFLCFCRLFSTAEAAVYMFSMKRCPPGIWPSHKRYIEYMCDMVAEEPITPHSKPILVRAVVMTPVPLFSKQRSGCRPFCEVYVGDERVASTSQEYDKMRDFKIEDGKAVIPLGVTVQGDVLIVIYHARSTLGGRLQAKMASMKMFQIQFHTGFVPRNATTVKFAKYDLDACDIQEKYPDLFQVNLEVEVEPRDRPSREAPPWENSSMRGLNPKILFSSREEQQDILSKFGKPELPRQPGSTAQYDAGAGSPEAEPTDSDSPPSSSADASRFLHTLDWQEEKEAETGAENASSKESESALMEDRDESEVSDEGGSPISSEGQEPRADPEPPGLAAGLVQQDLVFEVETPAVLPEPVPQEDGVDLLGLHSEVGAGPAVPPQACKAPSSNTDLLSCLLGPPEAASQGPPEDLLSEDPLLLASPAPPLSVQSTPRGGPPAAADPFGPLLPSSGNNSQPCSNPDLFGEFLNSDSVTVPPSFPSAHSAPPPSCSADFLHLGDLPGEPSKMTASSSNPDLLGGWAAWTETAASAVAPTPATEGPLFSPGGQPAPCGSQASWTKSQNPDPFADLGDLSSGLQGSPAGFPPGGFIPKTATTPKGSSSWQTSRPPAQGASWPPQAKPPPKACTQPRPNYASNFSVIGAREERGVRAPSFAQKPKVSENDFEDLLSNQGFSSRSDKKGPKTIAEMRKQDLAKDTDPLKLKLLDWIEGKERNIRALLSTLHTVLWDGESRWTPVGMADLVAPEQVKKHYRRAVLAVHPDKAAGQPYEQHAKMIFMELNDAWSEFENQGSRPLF

[2] = molecular target: kinases (KINOMEscan panel) (Homo sapiens, UniProt P11362); conditions: kinase FGFR1; NEW KINOMEscan
[3] = molecular target: kinases (KINOMEscan panel) (Homo sapiens, UniProt P49761); conditions: CLK3; NEW KINOMEscan
[4] = molecular target: kinases (KINOMEscan panel) (Homo sapiens, UniProt P53778)
[5] = molecular target: T2, kinases (KINOMEscan panel) (Homo sapiens, UniProt Q12851); conditions: kinase MAP4K2; NEW KINOMEscan
T2 sequence (Q12851 1-820): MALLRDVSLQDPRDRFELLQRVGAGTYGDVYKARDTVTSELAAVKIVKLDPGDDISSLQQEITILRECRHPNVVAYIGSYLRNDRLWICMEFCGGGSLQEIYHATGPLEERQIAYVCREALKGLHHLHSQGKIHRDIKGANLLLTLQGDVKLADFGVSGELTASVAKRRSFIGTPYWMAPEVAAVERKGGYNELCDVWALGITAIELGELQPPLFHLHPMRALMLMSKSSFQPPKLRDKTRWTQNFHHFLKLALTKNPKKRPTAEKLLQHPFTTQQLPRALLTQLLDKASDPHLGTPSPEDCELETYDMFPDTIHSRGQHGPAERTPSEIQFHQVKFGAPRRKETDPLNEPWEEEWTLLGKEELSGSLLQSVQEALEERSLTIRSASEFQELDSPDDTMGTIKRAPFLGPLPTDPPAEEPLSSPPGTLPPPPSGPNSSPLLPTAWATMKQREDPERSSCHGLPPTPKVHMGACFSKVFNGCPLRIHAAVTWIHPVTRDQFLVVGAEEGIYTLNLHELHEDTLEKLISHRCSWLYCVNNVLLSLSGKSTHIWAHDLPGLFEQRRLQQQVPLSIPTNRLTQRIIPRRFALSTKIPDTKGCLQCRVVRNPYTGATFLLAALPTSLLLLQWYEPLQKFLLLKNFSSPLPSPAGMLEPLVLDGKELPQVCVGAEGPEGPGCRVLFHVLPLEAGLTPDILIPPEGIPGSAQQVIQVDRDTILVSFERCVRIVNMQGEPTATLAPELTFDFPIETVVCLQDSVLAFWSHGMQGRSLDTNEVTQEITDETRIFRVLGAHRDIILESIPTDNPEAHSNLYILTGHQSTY

[6] = molecular target: T3, kinases (KINOMEscan panel) (Homo sapiens, UniProt Q9Y616); conditions: IRAK3; NEW KINOMEscan
T3 sequence (Q9Y616 1-596): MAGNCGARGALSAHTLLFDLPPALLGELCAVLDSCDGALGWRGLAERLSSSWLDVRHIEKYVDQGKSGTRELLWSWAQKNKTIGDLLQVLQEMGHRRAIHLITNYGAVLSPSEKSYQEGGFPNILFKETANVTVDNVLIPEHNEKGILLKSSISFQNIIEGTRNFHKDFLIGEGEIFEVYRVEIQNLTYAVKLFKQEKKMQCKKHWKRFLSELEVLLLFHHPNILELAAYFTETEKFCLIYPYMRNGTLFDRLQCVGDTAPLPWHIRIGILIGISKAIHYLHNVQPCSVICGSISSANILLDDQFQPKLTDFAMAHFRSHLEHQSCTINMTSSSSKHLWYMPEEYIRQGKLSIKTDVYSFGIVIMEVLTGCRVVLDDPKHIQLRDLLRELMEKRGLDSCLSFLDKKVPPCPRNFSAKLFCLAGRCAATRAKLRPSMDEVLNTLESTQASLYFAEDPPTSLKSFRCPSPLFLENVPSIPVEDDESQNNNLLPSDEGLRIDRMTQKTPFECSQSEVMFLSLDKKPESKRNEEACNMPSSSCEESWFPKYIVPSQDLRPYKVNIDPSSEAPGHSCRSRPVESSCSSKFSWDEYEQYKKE

kinases (KINOMEscan panel) (Homo sapiens, UniProt P49761), sequence (P49761 whole entry): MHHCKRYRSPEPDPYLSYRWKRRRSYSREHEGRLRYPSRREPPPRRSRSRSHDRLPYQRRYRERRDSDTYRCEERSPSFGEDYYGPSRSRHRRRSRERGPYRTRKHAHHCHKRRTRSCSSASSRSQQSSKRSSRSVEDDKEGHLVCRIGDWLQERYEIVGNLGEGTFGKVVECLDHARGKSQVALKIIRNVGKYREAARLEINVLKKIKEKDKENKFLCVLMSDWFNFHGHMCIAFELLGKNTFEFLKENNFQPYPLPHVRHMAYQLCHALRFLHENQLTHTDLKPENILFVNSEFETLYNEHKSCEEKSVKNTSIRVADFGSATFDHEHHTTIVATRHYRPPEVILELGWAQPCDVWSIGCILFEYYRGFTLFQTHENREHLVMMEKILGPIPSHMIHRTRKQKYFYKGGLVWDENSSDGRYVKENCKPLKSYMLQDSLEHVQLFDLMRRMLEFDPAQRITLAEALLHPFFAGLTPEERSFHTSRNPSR
kinases (KINOMEscan panel) (Homo sapiens, UniProt P11362), sequence (P11362 22-822): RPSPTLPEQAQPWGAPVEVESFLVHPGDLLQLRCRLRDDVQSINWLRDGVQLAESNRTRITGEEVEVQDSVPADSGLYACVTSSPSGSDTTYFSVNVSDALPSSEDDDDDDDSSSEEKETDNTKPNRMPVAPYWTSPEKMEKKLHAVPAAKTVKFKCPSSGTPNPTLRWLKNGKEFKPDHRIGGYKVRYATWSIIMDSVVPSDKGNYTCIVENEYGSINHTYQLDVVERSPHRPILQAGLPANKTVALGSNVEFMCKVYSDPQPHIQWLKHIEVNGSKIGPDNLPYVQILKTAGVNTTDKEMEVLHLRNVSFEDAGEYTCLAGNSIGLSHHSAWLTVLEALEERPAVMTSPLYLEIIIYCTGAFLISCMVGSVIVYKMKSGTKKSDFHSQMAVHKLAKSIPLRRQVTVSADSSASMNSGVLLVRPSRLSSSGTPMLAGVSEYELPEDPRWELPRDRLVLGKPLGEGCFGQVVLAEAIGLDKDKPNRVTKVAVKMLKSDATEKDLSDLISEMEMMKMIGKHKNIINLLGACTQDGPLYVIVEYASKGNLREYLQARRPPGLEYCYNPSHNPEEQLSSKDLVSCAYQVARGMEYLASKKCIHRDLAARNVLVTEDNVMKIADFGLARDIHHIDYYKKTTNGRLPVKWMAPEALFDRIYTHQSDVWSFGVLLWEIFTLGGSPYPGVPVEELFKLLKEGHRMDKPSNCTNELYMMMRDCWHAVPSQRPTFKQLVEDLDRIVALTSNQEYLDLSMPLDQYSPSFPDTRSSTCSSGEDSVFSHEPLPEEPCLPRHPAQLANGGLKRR
kinases (KINOMEscan panel) (Homo sapiens, UniProt P53778), sequence (P53778 whole entry): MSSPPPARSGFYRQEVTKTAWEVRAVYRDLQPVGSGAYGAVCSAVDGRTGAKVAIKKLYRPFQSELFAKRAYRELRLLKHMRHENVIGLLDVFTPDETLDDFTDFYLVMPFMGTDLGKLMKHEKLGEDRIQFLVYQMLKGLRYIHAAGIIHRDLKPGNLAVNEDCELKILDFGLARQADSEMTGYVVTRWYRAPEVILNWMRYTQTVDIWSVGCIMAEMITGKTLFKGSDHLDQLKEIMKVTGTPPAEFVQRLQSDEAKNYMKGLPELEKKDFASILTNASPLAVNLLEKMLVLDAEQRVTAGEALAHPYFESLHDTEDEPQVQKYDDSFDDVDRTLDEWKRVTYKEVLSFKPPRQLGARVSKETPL

SMILES	KINOMEscan GAK [1]	KINOMEscan FGFR1 [2]	KINOMEscan CLK3 [3]	KINOMEscan MAPK12/p38-gamma [4]	KINOMEscan MAP4K2 [5]	KINOMEscan IRAK3 [6]
Cc1cccc(-c2nc(Nc3ccc4nn(C)cc4c3)c3ccccc3n2)n1 [NK167]	0	15	6	43	0	0
Cc1cccc(-c2nc(N(C)c3ccc4ncsc4c3)c3ccccc3n2)n1 [NK-161]	0	10	4	27	6	7
